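Dose response: 5 concentrations. Exposure: 48 h. Format: 96-well plates. Endpoint: linear interpolation; highest concentration if not reached. At the GI50, growth is halved.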 Activity calls are given as the source filed them. Rule as the data show it: active = GI50 up to about 1.1 µM and inactive = higher.

Test systems include CAKI-1; DLD-1; A549; NCI-H226; HCT-116; CCRF-CEM; ACHN; SNB-19; LXFL 529; TK-10; KM12; SK-MEL-2; HT-29; SK-MEL-28; DMS-273; MCF7; MDA-N; DU-145; BT-549; PC-3.
Common to all, as to experiment: NCI tumour cell line growth inhibition, 48 h

Regarding `CCCCC(C)C(OC(=O)CC(CC(=O)O)C(=O)O)C(CC(C)CC(O)CCCCC(O)CC(O)C(C)N)OC(=O)CC(CC(=O)O)C(=O)O` (stereo not drawn), the GI50 with CAKI-1, in the assay on DLD-1, with A549, in the assay with NCI-H226, in the assay on HCT-116 and with CCRF-CEM was > 100 µM (inactive) throughout. Moreover, the GI50 with ACHN, with SNB-19, in the assay on LXFL 529, in the assay on TK-10, with KM12 and with SK-MEL-2 was > 100 µM (inactive) throughout. The GI50 with HT-29 and in the assay on SK-MEL-28 was > 100 µM (inactive) in each case.
Turning to `CSCCC(C(=O)O)N(CC1(O)OCC(O)C(O)C1O)N=O` (stereo not drawn), the GI50 in the assay on DMS-273, with DLD-1, with A549, with HCT-116, in the assay with CCRF-CEM and in the assay on ACHN was > 100 µM (inactive) throughout. The GI50 with LXFL 529, in the assay with TK-10, in the assay with KM12, in the assay on SK-MEL-2, in the assay with HT-29 and in the assay on SK-MEL-28 was > 100 µM (inactive) each time.
Take `CS(=O)(=O)OCCN1CCN(C(=O)c2cccc3c(Nc4ccc(S(=O)(=O)N=C(N)N)cc4)c4ccccc4nc23)CC1`: the GI50 with CAKI-1, in the assay on DMS-273, in the assay on DLD-1, with A549, with NCI-H226 and in the assay on HCT-116 was > 100 µM (inactive) in each case. Besides, the GI50 is > 100 µM (inactive) with CCRF-CEM; > 100 µM (inactive) with ACHN; > 100 µM (inactive) with SNB-19; > 100 µM (inactive) in the assay on TK-10; > 100 µM (inactive) in the assay with KM12; > 10 µM (inactive) in the assay on SK-MEL-2. Further, the GI50 in the assay with HT-29 and in the assay on SK-MEL-28 was > 100 µM (inactive) each time.
With `CN1C(c2ccccc2)CS(=O)(=O)CS1(=O)=O` (stereo not drawn), the GI50 with CAKI-1, with DMS-273, in the assay with DLD-1, in the assay with A549, in the assay with HCT-116 and with ACHN was > 100 µM (inactive) each time. For the same compound, the GI50 in the assay on SNB-19, in the assay with LXFL 529, in the assay with TK-10, in the assay on KM12, with SK-MEL-2 and in the assay with HT-29 was > 100 µM (inactive) throughout. Moreover, in the assay on SK-MEL-28, the GI50 was > 100 µM (inactive).
Consider `CCN(CC)CCCNc1nccc2c(C)c3c(cc12)c1cnccc1n3C`, for which the GI50 in the assay with CAKI-1 was 0.144 µM (active); with DMS-273, 0.0353 µM (active); with DLD-1, 0.0244 µM (active); in the assay with A549, 0.0526 µM (active); in the assay on HCT-116 it was 0.0564 µM (active); in the assay with CCRF-CEM it was < 0.01 µM (active). Also, the GI50 in the assay with ACHN is 0.353 µM (active); with SNB-19, 0.288 µM (active); with TK-10, 0.444 µM (active); in the assay with HT-29, 0.0101 µM (active); with SK-MEL-28, 0.403 µM (active).
Consider `C/C(CC(=O)Nc1cccc([N+](=O)[O-])c1)=N/NC(N)=S`, for which the GI50 with DLD-1, with A549, in the assay with NCI-H226, in the assay on HCT-116, with CCRF-CEM and in the assay with ACHN was > 100 µM (inactive) each time. In addition, the GI50 in the assay with LXFL 529, in the assay on TK-10, in the assay on KM12, with SK-MEL-2, in the assay on HT-29 and in the assay on SK-MEL-28 was > 100 µM (inactive) throughout.
`CCc1ccccc1N1CCN(C(=O)c2cc(OC)c(OC)c(OC)c2)CC1`: the GI50 with CAKI-1 was < 0.0205 µM (active); in the assay on MCF7, 0.0178 µM (active); in the assay on DMS-273 it was 0.0277 µM (active); in the assay with DLD-1, 0.2 µM (active); in the assay on A549 it was 0.0452 µM (active); in the assay with NCI-H226, 0.103 µM (active). Further, the GI50 in the assay with HCT-116 is 0.042 µM (active); with MDA-N, < 0.01 µM (active); with CCRF-CEM, 0.0524 µM (active); in the assay on ACHN, < 0.0137 µM (active); with SNB-19, 0.067 µM (active); in the assay with DU-145, 0.0207 µM (active). Also, the GI50 is 0.0361 µM (active) in the assay on BT-549; 0.0248 µM (active) in the assay on TK-10; 0.0231 µM (active) in the assay on KM12; 0.0247 µM (active) in the assay on SK-MEL-2; 0.0225 µM (active) with HT-29; 0.251 µM (active) in the assay with SK-MEL-28. The GI50 with PC-3 was < 0.0144 µM (active).
On to `Cc1ccc(S(=O)(=O)N/N=C(\c2nc3ccc([N+](=O)[O-])cc3[nH]c2=O)C(O)c2ccc([N+](=O)[O-])cc2)cc1` (stereo not drawn), for which the GI50 in the assay on CAKI-1 is 97.1 µM (inactive); in the assay on DMS-273, 54 µM (inactive); with DLD-1 it was 57.1 µM (inactive); in the assay with A549, > 100 µM (inactive); with CCRF-CEM it was 22.3 µM (inactive); with ACHN it was 35 µM (inactive). In addition, the GI50 in the assay with SNB-19 was > 100 µM (inactive); in the assay on LXFL 529, 46 µM (inactive); in the assay on TK-10, > 100 µM (inactive); in the assay with SK-MEL-2 it was > 100 µM (inactive); in the assay with SK-MEL-28, > 100 µM (inactive).
With `CC(=O)NNc1nc(C)c(C(/C=C/c2ccc(/C=C/C(=N\NC(=O)c3ccncc3)c3sc(NNC(C)=O)nc3C)cc2)=N/NC(=O)c2ccncc2)s1`, the GI50 in the assay with CAKI-1, with DLD-1, in the assay on A549, with NCI-H226, in the assay on HCT-116 and in the assay with CCRF-CEM was > 100 µM (inactive) throughout. Besides, the GI50 with ACHN, with SNB-19, with LXFL 529, in the assay with TK-10, with KM12 and in the assay on SK-MEL-2 was > 100 µM (inactive) each time. Further, the GI50 in the assay on HT-29 and with SK-MEL-28 was > 100 µM (inactive) each time.
Consider `O=C1c2ccccc2C(=O)c2cc3c(cc21)C[S+]([O-])C3`, for which the GI50 in the assay on CAKI-1, with DMS-273, in the assay with DLD-1, in the assay on A549, in the assay on CCRF-CEM and in the assay on ACHN was > 100 µM (inactive) in each case. Besides, the GI50 in the assay with SNB-19, in the assay with LXFL 529, with TK-10, in the assay with KM12, in the assay on SK-MEL-2 and in the assay on HT-29 was > 100 µM (inactive) in each case. The GI50 with SK-MEL-28 is > 100 µM (inactive).

The values above are taken from ChEMBL document CHEMBL1201862, “PubChem BioAssay data set” (2004).
